Source: a melting point compilation (Tetko et al.; mined from patent text by program, amines drawn as free bases though some values may be those of a salt)

Row | melting point | SMILES
1 | 165 to 168 °C | O=C1N(C(c2ccccc2)c2ccccc2)c2ccccc2C12COc1cc3c(cc12)OCCCO3 (stereo not given)
2 | 65 °C | Cc1cc(C)c2cccc(OCc3c(Cl)ccc(S(=O)(=O)N4CCC[C@H]4C(=O)N4CCCNCC4)c3Cl)c2n1
3 | 78 to 81 °C | CCN(CC)C(=O)n1ccc(S(=O)(=O)c2cccc(F)c2F)n1
4 | 127 to 128 °C | CC(C)c1ccc(-c2ccc(C3N=C(c4ccccc4Cl)CC3C#N)cc2)cc1 (stereo not given)
5 | 134 °C | COC(=O)C1(NC(=O)OCc2ccccc2)CCC(=O)O1 (stereo not given)
6 | 91 to 92 °C | COC(=O)c1ccc(C#CC(O)c2cc(C(C)(C)C)c(OCOCC[Si](C)(C)C)c(C(C)(C)C)c2)cc1 (stereo not given)
7 | 212 to 214 °C | O=c1[nH]c2c(cc1-c1nnc(C3CC3)o1)CN(Cc1ccccc1)CC2
8 | 138 to 140 °C | CCN(CC)C(=O)c1ccc(Nc2nc(OCC3CCCCC3)c3nc[nH]c3n2)cc1
9 | 235 to 237 °C | CC(C)(C)c1cc2c(c(-c3nc4ccc(S(=O)(=O)C(F)(F)F)cc4c(=O)[nH]3)c1O)CCO2
10 | 142 to 145 °C | Cc1nn(C)c(C)c1S(=O)(=O)n1c(CCCC(=O)O)cc2cc(Cl)ccc21
11 | 131 to 133 °C | CCCS(=O)(=O)N[C@H](C(=O)NCCc1ccc(OCC#Cc2ccc(Cl)cc2)c(OC)c1)C(C)C
12 | 68 to 69 °C | CCN(CC)CCOc1cccc2c1c1cc(F)ccc1n2Cc1ccccc1
13 | 134 to 137 °C | Cc1c(NC(=O)C(CSC(=O)Cc2cccs2)Cc2ccccc2)cccc1C(=O)O (stereo not given)
14 | 89 to 92 °C | COc1cc(OC)nc(Cc2cccnc2NC(=O)OC(C)(C)C)n1
15 | 173 to 175 °C | CCC(O)c1c(C(C)C)nc(C(C)C)c(CO)c1-c1ccc(F)cc1 (stereo not given)
16 | 183 to 185 °C | O=c1c2cc(F)c(N3CCCC3)nc2n(-c2ccc(F)cc2F)c(=O)n1OCc1ccccc1
17 | 193 to 194 °C | CC(=O)c1cc2c(Cl)cc(F)c(-n3c(=O)cc(C(F)(F)F)n(C)c3=O)c2o1
18 | 206 to 207 °C | CC1CN(c2ccc(C(N)=O)cc2)CC(C)N1CCC1OCCc2ccccc21 (stereo not given)
19 | 302 to 306 °C | CCn1c(=O)c2nc(C=O)cn2c2ccccc21
20 | 222 °C | O=C(Nc1ccc2ccc(Cl)nc2n1)c1ccccc1F
21 | 49 to 52 °C | CS(=O)(=O)c1ccc(-c2cc(/C=C/CO)nn2CC2CCCCC2)cc1
22 | 268 to 269 °C | O=C(O)c1csc(-c2ccccc2O)n1
23 | 165 °C | COc1ccc2ccc3c(c2c1)CC(C(=O)O)CO3 (stereo not given)

Row | melting point | SMILES
24 | 110 to 111 °C | CCCCCOc1cc2c(cc1OCc1cccc(C(=O)OC)c1)C(=O)CC2
25 | 199 to 200 °C | CSc1ccc(-c2cc(C(=O)O)nn2-c2ccc(F)cc2)cc1
26 | 158 to 159 °C | CCC(=CC(CNC(=O)c1sc(C)nc1C)=NO)C(C)[N+](=O)[O-] (stereo not given)
27 | 47 to 49 °C | OCCOc1cccc2ocnc12
28 | 276 to 278 °C | CS(=O)(=O)c1ccc(-c2oc(COc3ccccn3)nc2-c2ccc(F)cc2)cc1
29 | 170 to 172 °C | CC(O)c1cccc(-c2ccc3nc(-c4ccc(Cl)cc4)cn3c2)c1Cl (stereo not given)
30 | 168 to 171 °C | CC(=O)NCC[C@@H]1CCc2ccc3nn(C)c(Cl)c3c21
31 | 105 to 115 °C | Cc1ccccc1-c1ccc(C(=O)N2Cc3ccc(C(=O)NCc4cccc(N)c4)n3Cc3ccccc32)cc1C
32 | 162 °C | Cc1cc(Oc2ccc(-c3ccn(CC4CC4)c(=O)c3C(F)(F)F)cc2F)cc(C)n1
33 | 66 to 70 °C | COC(=O)[C@@H]1CCCN1C(=O)CCC(=O)c1ccccc1
34 | 150 to 152 °C | Cn1nc(C(F)(F)F)n(-c2ccc(O)cc2)c1=S
35 | 114 to 115 °C | CCOC(=O)CCc1ccc2c3ccccc3n(Cc3ccccc3)c2c1C
36 | 98 to 114 °C | CC1(C)OC(=O)C(Sc2ccccc2)=C1c1ccc(S(C)(=O)=O)cc1
37 | 160 to 161 °C | COc1ccc(-n2c(-c3ccc(Cl)cc3Cl)nc(C(=O)NC3CCCCC3)c2C)cc1
38 | 83 °C | CN1CCC(c2c[nH]c3ccc(Sc4ccccn4)cc23)CC1
39 | 176 to 177 °C | CC(C)(Sc1ccc2c(-c3ccc(Cl)cc3)noc2c1)C(=O)O
40 | > 300 °C | Nc1c(Cl)cc2nc(O)c(O)nc2c1[N+](=O)[O-]
41 | 251 to 253 °C | O=c1cc(CCN2CCC(c3c[nH]c4ccccc34)CC2)c2cc([N+](=O)[O-])ccc2[nH]1
42 | 105 °C | O=C(OCCS(=O)(=O)Cc1ccccc1)c1cc(Oc2ccc(C(F)(F)F)cc2Cl)ccc1[N+](=O)[O-]
43 | 148 to 151 °C | COc1cc2c(Nc3ccc(Oc4ccccc4)cc3)c(C#N)cnc2cc1OCCCl
44 | 186 to 187 °C | CC(=O)NC[C@H]1CN(c2ccc3c(c2)CCSc2cn[nH]c2-3)C(=O)O1
45 | 156 to 158 °C | COC(=O)CCc1oc2ccc(C#N)cc2c1C(=O)c1ccc(O)cc1
46 | 138 to 141 °C | Cc1noc(NS(=O)(=O)c2ccc(Cl)cc2Cl)c1Br

Row | melting point | SMILES
47 | 128 to 130 °C | COC(=O)CS(=O)CCCCN(c1cnc(-c2ccccc2)c(-c2ccccc2)n1)C(C)C (stereo not given)
48 | 152 to 154 °C | Cc1cccc2c(=O)n(C)c(-c3ccc(OC4CCN(C5CCC5)CC4)cc3)nc12
49 | 49 to 54 °C | CCCc1c(C(C)C)nc(C(C)C)c(CO)c1-c1ccc(F)cc1
50 | 52 to 53 °C | COC(=O)c1ccc(CCc2nc(-c3ccccc3)c(C)s2)cc1
51 | 187 to 189 °C | O=C(O)C(O)=CC(=O)c1cc(Cc2ccc(F)cc2F)cn(Cc2ccccc2F)c1=O
52 | 110 to 113 °C | Cc1nc(N2CCN(Cc3cccnc3)C2=O)sc1C(=O)NCc1ccccc1
53 | 123 to 125 °C | CCC(=O)C=Cc1ccc(OCc2ccccc2)cc1
54 | 102 to 104 °C | O=C(OCCN1CCCC1)c1ccccc1Nc1ccnc2cc(Cl)ccc12
55 | 113 to 114 °C | COc1ccc(CC(=O)N2CCCCC2CC(c2ccccc2)c2ccccc2)cc1OC (stereo not given)
56 | 213 °C | CNc1nc2c(OCc3ccccc3)cccc2n1C
57 | 122 to 124 °C | CC(C)N1Cc2cncn2C(c2ccc(C#N)cc2)C1=O (stereo not given)
58 | 180 to 182 °C | O=C(NN=Cc1cc(Cl)cc(Cl)c1O)c1cccc(OC(F)(F)F)c1
59 | 188 to 191 °C | N#Cc1ccc(Nc2nc(Oc3c(Br)cc(Br)cc3Br)ccc2[N+](=O)[O-])cc1
60 | 202 to 203 °C | O=C(CCO)Nc1cccc(-c2ccc3c(c2)C(c2ccc(Cl)cc2Cl)CC3)c1 (stereo not given)
61 | 135 to 138 °C | CC(C)CSc1c(-c2ccc(S(C)(=O)=O)cc2)cnn(CC(F)(F)F)c1=O
62 | 158 to 159 °C | CC(C)(C)OC(=O)N1C[C@@H](F)C[C@H]1C(=O)O
63 | 130 °C | CCCN(CCCc1c[nH]c2c(F)cc(F)cc12)C1COc2c(C(N)=O)ccc(F)c2C1 (stereo not given)
64 | 192 to 193 °C | CC(C)n1nc(-c2c(-c3ccccc3)nn3ccc(C(=O)NCc4cccnc4)cc23)ccc1=O
65 | 253 to 254 °C | O=C1CCCC2=C1C(c1ccc(Cl)cc1)C1=C(CCCC1)N2 (stereo not given)
66 | 186 to 187 °C | CN(C)C(=O)CCC12CC(c3ccccc31)c1ccccc12
67 | 90 to 92 °C | COC(C)COC1C(n2cc(C)c(=O)[nH]c2=O)OC(COCc2ccccc2)(COS(=O)(=O)c2ccc(C)cc2)C1(CCO)OCc1ccccc1 (stereo not given)
68 | 260 to 262 °C | O=C1c2ccc(OCCO)cc2C(=O)c2cc(-c3nnn[nH]3)ccc21
69 | 192 to 195 °C | CC(=O)C1CCC2C3CCC4CC(O)(C#Cc5ccccn5)CCC4(C)C3CCC12C (stereo not given)

Row | melting point | SMILES
70 | 184 to 185 °C | COc1cccnc1C(c1cc(F)ccc1F)S(=O)(=O)c1ccc(Cl)cc1 (stereo not given)
71 | 232 to 233 °C | c1ccc(C(CCOc2ccc(-c3nnn[nH]3)cc2)(c2ccccc2)c2ccccc2)cc1
72 | 81 to 83 °C | CCOC(=O)Cc1ccc2cc(O)ccc2c1
73 | 88 °C | Cc1cc(-n2ccnc2)c2cccc(OCc3c(Cl)ccc(S(=O)(=O)N4CCC[C@H]4C(=O)N4CCN(c5ccccc5)CC4)c3Cl)c2n1
74 | 123 to 124 °C | CC(C)Oc1ccc2c(c1)Cc1ccccc1C2=O
75 | 172 to 173 °C | Cc1nc(-n2ccc(C(F)(F)F)cc2=O)sc1C(=O)NCc1cccnc1
76 | 106 to 108 °C | COc1cccc(C(=O)CS(C)=O)c1N (stereo not given)
77 | 179 to 181 °C | CCOC(=O)c1ncc2[nH]c3cccc(O)c3c2c1COC
78 | 127 to 128 °C | COCCN(CCOC)c1nc2cc(-c3ccc(OC)cc3)nnc2c2ccccc12
79 | 144 to 145 °C | Nc1nccn2nc(SCc3ccccc3)nc12
80 | 226 to 228 °C | Cc1nc2c(N)nc3ccccc3c2n1CCCNC(=O)N1CCOCC1
81 | 117 to 118 °C | CCOC(=O)c1nc(-c2ccc(CN(C)C)cc2)[nH]c1-c1ccc(Cl)cc1
82 | 99 to 104 °C | CS(=O)(=O)OCC(O)(CC(Cl)(Cl)Cl)c1cc(Cl)cc(Cl)c1 (stereo not given)
83 | 77 °C | Cc1cc(C)cc(-c2cnn3c(-c4cccc(-c5nnn(Cc6ccccn6)n5)c4)ccnc23)c1
84 | 176 to 177 °C | COCCNC(=O)c1cccc(-c2nc(=O)c3ccccc3s2)n1
85 | 119 to 121 °C | CCn1nc(C)c2c(Cl)c(CO)cnc21
86 | 148 to 150 °C | CSCc1cn(C)c2ccc(Cl)cc2c1=O
87 | 154 °C | COc1nc2ccnn2c2ncccc12
88 | 241 to 243 °C | O=C1NCC(c2c[nH]c3ccccc23)C1c1cn2c3c(cccc13)CCC2 (stereo not given)
89 | 131 to 132 °C | O=C(Oc1ccc(Oc2ccc(C(F)(F)F)cn2)cc1)N1CCN(c2ncccc2C(F)(F)F)CC1
90 | 163 to 165 °C | ClCCc1c[nH]c(-c2ccc(OCc3ccccc3)cc2)n1
91 | 204 to 205 °C | O=c1c(O)c(-c2ccccn2)oc2ccc(OCc3ccc(F)cc3)cc12

Row | SMILES | melting point
92 | O=[N+]([O-])c1cc(C2=NOC(c3cc(C(F)(F)F)cc(C(F)(F)F)c3)(C(F)(F)F)C2)ccc1N1C=NNN1 (stereo not given) | 147 to 149 °C
93 | CN(C)CCN1C(=O)C(NC(=O)CCc2ccc(Cl)cc2Cl)N=C(c2ccccc2)c2ccccc21 (stereo not given) | 199 to 201 °C
94 | CSP(=S)(C1CCCCC1)C1CCCCC1 | 75 to 75.5 °C
95 | CNC(=O)Oc1ccc(CN2CCN(c3ccc([N+](=O)[O-])cc3)CC2)cc1OC | 155 to 157 °C
